{"source": "paper PMC4110205", "about": "(Toxicology and applied pharmacology, 2014)", "origin": "cited, not measured here", "data": [{"target": "T1, hFMO2.1 (Homo sapiens, UniProt Q99518)", "T1 sequence (Q99518 1-535)": "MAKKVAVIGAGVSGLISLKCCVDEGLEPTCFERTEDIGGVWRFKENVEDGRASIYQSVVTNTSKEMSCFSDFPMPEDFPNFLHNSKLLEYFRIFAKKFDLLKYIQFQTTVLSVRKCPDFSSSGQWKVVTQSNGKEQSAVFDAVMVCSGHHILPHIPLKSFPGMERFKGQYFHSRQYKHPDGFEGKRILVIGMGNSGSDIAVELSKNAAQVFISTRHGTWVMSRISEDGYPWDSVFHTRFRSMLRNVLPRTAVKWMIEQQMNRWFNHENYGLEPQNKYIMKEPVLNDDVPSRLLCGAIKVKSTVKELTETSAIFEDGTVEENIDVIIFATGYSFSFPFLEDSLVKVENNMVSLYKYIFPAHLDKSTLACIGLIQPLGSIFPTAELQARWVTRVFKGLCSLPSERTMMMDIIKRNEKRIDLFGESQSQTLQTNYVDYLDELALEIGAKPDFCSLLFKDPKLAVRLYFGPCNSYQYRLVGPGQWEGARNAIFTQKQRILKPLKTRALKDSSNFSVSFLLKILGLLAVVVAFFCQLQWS", "details": "expressed hFMO2; ref Henderson et al., 2004", "units": {"Km": "µM", "kcat": "min⁻¹"}, "values": [{"smiles": "NC(N)=S", "note": "[Thiourea]", "Km": 27, "kcat": 51}, {"smiles": "S=C1NCCN1", "note": "[ethylenethiourea]", "Km": 14, "kcat": 48}, {"smiles": "NC(=S)Nc1ccccc1", "note": "[phenylthiourea]", "Km": 29, "kcat": 24}, {"smiles": "NC(=S)Nc1cccc2ccccc12", "note": "[α-naphthylthiourea]", "Km": 42, "kcat": 33}]}]}
